Reference: patent US20130217761A1 (Laboratorio Catarinense S/A, priority 2009, published 2013)

What was measured:
isolated rabbit heart [1] = experiment: reversal of sustained electrically induced ventricular fibrillation, isolated rabbit heart (Langendorff preparation); conditions: added to perfusate
Description: The thorax was rapidly opened by middle-sized incision, and the sternum beaten back for complete exposure of the inside of the thorax. […] A metallic cannula was then inserted and fixed to the proximal portion of the aorta, retrograde perfusion of oxygenated Krebs-Henseleit solution was initiated and heated up to 37° C. with constant flow of 13 mL/minute, kept by a continuous-infusion pump, Harvard Apparatus model RS232. The cannula tip was positioned quite close to the aortic valve to permit adequate coronary perfusion.
The heart was then removed and suspended through the cannula in a classic Langenhorff preparation. The Krebs Henseleit composition used was: 115 mM NaCl; 5.4 mM KCL; 1.25 mM CaCl2; 25 mM NaHCO3; 1.2 mM MgSO4; 1.5 mM NaH2PO4 and 11 nM glucose. […]

isolated rabbit heart [2] = experiment: re-induction of ventricular fibrillation after reversal (protective effect), isolated rabbit heart; conditions: new attempt to induce ventricular fibrillation 5 minutes after reversal
Description: In order to carry out the experiments, twenty-seven male and female white New Zealand rabbits, weighing 2.5-3.5 kg, received 100 Ul/kg of intravenous heparin and were killed by cervical displacement.
The thorax was rapidly opened by middle-sized incision, and the sternum beaten back for complete exposure of the inside of the thorax. The pericardium was removed and the rising part of the aorta was isolated and repaired with a cotton thread 3-0. A metallic cannula was then inserted and fixed to the proximal portion of the aorta, retrograde perfusion of oxygenated Krebs-Henseleit solution was initiated and heated up to 37° C. with constant flow of 13 mL/minute, kept by a continuous-infusion pump, Harvard Apparatus model RS232. The cannula tip was positioned quite close to the aortic valve to permit adequate coronary perfusion.
The heart was then removed and suspended through the cannula in a classic Langenhorff preparation. […]
Two pairs of electrodes (Monicron 2-O) were saturated on the LV: one at the tip, called proximal (P) and the other at the branching of front descending coronary artery branching with the first diagonal, called distal (D). […] The cardiac frequency was determined by measuring the interval between two consecutive electrograms and transformed into beats per minute (bpm). […]

Row | SMILES | reversal of sustained ventricular fibrillation (in words) (isolated rabbit heart [1]) | prevention of re-induction of ventricular fibrillation by electric stimulus (isolated rabbit heart [2])
1 | CCCCc1oc2ccccc2c1C(=O)c1cc(I)c(OCCN(CC)CC)c(I)c1 [amiodarone] | do not have any effect | 
2 | CCN(CC)CC(=O)Nc1c(C)cccc1C [lidocain] |  | does not prevent the reinduction
3 | CC(C)NCC(O)COc1cccc2ccccc12 (stereo not drawn) [propranolol] | do not have any effect | 
